ChEMBL document CHEMBL3885881, “DrugMatrix”

Organism: Rattus norvegicus
Test: DrugMatrix - Regimen: Daily Repeat
Format: toxicity, organism-based, Sprague-Dawley
Parameters: regimen Daily Repeat, gender Male, age 6-8 weeks
Settings: in vivo, po, 300 mg/kg, route oral GAVAGE, vehicle .5 % CMC; for ABSOLUTE BASOPHIL / ABSOLUTE EOSINOPHIL / ABSOLUTE LYMPHOCYTE / ABSOLUTE MONOCYTE / ABSOLUTE SEGMENTED NEUTROPHIL / BASOPHIL / EOSINOPHIL / ERYTHROCYTE COUNT / HEMATOCRIT / HEMOGLOBIN / LEUKOCYTE COUNT / LYMPHOCYTE / MEAN CORPUSCULAR HEMOGLOBIN / MEAN CORPUSCULAR HEMOGLOBIN CONCENTRATION / MEAN CORPUSCULAR VOLUME / MONOCYTE / NEUTROPHIL / NUCLEATED RED BLOOD CELLS / PLATELET COUNT: tissue Blood; for ALANINE AMINOTRANSFERASE / ALBUMIN / ALKALINE PHOSPHATASE / ASPARTATE AMINOTRANSFERASE / BLOOD UREA NITROGEN / CARBON DIOXIDE / CHLORIDE / CHOLESTEROL / CREATINE PHOSPHOKINASE / CREATININE / GLUCOSE / LACTATE DEHYDROGENASE / LIPASE / PHOSPHORUS / POTASSIUM / SODIUM / TOTAL BILIRUBIN / TOTAL PROTEIN / URIC ACID: tissue Plasma
[1] = 72 h, dose level M1, time 3 day
[2] = 120 h, dose level M1, time 5 day

COc1ccc(/C=C/C(=O)Nc2ccccc2C(=O)O)cc1OC
ABSOLUTE BASOPHIL [1]: 0 CELLS/uL
ABSOLUTE EOSINOPHIL [1]: 0 CELLS/uL
ABSOLUTE LYMPHOCYTE [1]: 15435.67 CELLS/uL
ABSOLUTE MONOCYTE [1]: 65.33 CELLS/uL
ABSOLUTE SEGMENTED NEUTROPHIL [1]: 1499 CELLS/uL
BASOPHIL [1]: 0%
EOSINOPHIL [1]: 0%
ERYTHROCYTE COUNT [1]: 5.52 x10E6/uL
HEMATOCRIT [1]: 35.2%
HEMOGLOBIN [1]: 13.97 G/DL
LEUKOCYTE COUNT [1]: 17 x10E3/uL
LYMPHOCYTE [1]: 90.67%
MEAN CORPUSCULAR HEMOGLOBIN [1]: 25.3 pg
MEAN CORPUSCULAR HEMOGLOBIN CONCENTRATION [1]: 39.67 G/DL
MEAN CORPUSCULAR VOLUME [1]: 63.73 fL
MONOCYTE [1]: 0.33%
NEUTROPHIL [1]: 9%
NUCLEATED RED BLOOD CELLS [1]: 0 /100WBC
PLATELET COUNT [1]: 1287.67 x10E3/uL
ALANINE AMINOTRANSFERASE [1]: 54.67 u/L
ALBUMIN [1]: 4.27 G/DL
ALKALINE PHOSPHATASE [1]: 401.67 u/L
ASPARTATE AMINOTRANSFERASE [1]: 92.67 u/L
BLOOD UREA NITROGEN [1]: 14 mg/dL
CARBON DIOXIDE [1]: 24 mmol/L
CHLORIDE [1]: 103 MEQ/L
CHOLESTEROL [1]: 78.33 mg/dL
CREATINE PHOSPHOKINASE [1]: 294 u/L
CREATININE [1]: 0.15 mg/dL
GLUCOSE [1]: 150.67 mg/dL
LACTATE DEHYDROGENASE [1]: 445 u/L
LIPASE [1]: 9 u/L
PHOSPHORUS [1]: 13.6 mg/dL
POTASSIUM [1]: 6.91 MEQ/L
SODIUM [1]: 145.8 MEQ/L
TOTAL BILIRUBIN [1]: 0.17 mg/dL
TOTAL PROTEIN [1]: 6 G/DL
URIC ACID [1]: 1.4 mg/dL
ABSOLUTE BASOPHIL [2]: 0 CELLS/uL
ABSOLUTE EOSINOPHIL [2]: 240.33 CELLS/uL
ABSOLUTE LYMPHOCYTE [2]: 16960.67 CELLS/uL
ABSOLUTE MONOCYTE [2]: 310.67 CELLS/uL
ABSOLUTE SEGMENTED NEUTROPHIL [2]: 988.33 CELLS/uL
BASOPHIL [2]: 0%
EOSINOPHIL [2]: 1.33%
ERYTHROCYTE COUNT [2]: 5.25 x10E6/uL
HEMATOCRIT [2]: 33.97%
HEMOGLOBIN [2]: 13.6 G/DL
LEUKOCYTE COUNT [2]: 18.5 x10E3/uL
LYMPHOCYTE [2]: 91.67%
MEAN CORPUSCULAR HEMOGLOBIN [2]: 25.93 pg
MEAN CORPUSCULAR HEMOGLOBIN CONCENTRATION [2]: 40.07 G/DL
MEAN CORPUSCULAR VOLUME [2]: 64.73 fL
MONOCYTE [2]: 1.67%
NEUTROPHIL [2]: 5.33%
NUCLEATED RED BLOOD CELLS [2]: 0 /100WBC
PLATELET COUNT [2]: 1233.33 x10E3/uL
ALANINE AMINOTRANSFERASE [2]: 54.33 u/L
ALBUMIN [2]: 4.33 G/DL
ALKALINE PHOSPHATASE [2]: 383 u/L
ASPARTATE AMINOTRANSFERASE [2]: 84.33 u/L
BLOOD UREA NITROGEN [2]: 18 mg/dL
CARBON DIOXIDE [2]: 21 mmol/L
CHLORIDE [2]: 105 MEQ/L
CHOLESTEROL [2]: 63 mg/dL
CREATINE PHOSPHOKINASE [2]: 256.33 u/L
CREATININE [2]: 0.21 mg/dL
GLUCOSE [2]: 156.33 mg/dL
LACTATE DEHYDROGENASE [2]: 285 u/L
LIPASE [2]: 8 u/L
PHOSPHORUS [2]: 11.8 mg/dL
POTASSIUM [2]: 6.72 MEQ/L
SODIUM [2]: 146.17 MEQ/L
TOTAL BILIRUBIN [2]: 0.2 mg/dL
TOTAL PROTEIN [2]: 5.93 G/DL
URIC ACID [2]: 1.3 mg/dL
